Here are results for 1 substance from patent US20260217828A1, “IMMUNE CHECKPOINT BLOCKADE THERAPY FOR TREATING STAPHYLOCOCCUS AUREUS INFECTIONS” (priority 2023, published 2026).

In this experiment the test system is bioluminescent MRSA (USA300 LAC::lux). The experiment in a line: Transtibial implant-associated osteomyelitis in C57BL/6 mice, treated with sabatolimab or saline placebo. Format: in vivo, Staphylococcus aureus. The note with it: vs saline placebo. The method, then: (FIG. 7A) Schematic illustration of the experimental design. 8-week-old C57BL/6 mice were subjected to transtibial implant-associated osteomyelitis using bioluminescent MRSA (USA300 LAC::lux) and treated with sabatolimab or a saline placebo control. The concentration of anti-TIM-3 mAb used in the study is also outlined.
Similar assays were carried out to examine the efficacy trend of immune checkpoint blockade drug Sabatolimab (anti-TIM-3) in reducing S. aureus burden due to implant-associated osteomyelitis.
Briefly, 8-week-old C57BL/6 mice were subjected to transtibial implant-associated osteomyelitis using bioluminescent MRSA (USA300 LAC::lux). The mise were then treated with sabatolimab or a saline placebo control. The concentration of anti-TIM-3 mAb used in the study was also outlined in FIG. 7A.

On to “sabatolimab: immune checkpoint blockade drug Sabatolimab (anti-TIM-3)”, for which the “in vivo S. aureus growth (longitudinal BLI)” value (8-week-old C57BL/6 mice, MRSA USA300 LAC::lux, n=9-10, ANOVA p<0.05) was “significantly decreased”. In addition, the “disease severity by terminal ex vivo CFU on the tibia and internal organs (heart, liver, kidneys, and spleen)” value (C57BL/6 mice, day 14 post-surgery, n=9-10, t-test p<0.05) is on record as “lower disease severity”.
